Test results reported in PubChem BioAssay (NCI).
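Grown in 96-well plates, cells were treated for 48 hours with each compound at five concentrations. Insufficient inhibition: endpoint recorded as highest concentration tested. At the GI50, growth is halved. TGI denotes the concentration required for complete inhibition of growth.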

Legend:
Assay in all cases: NCI tumour cell line growth inhibition, 48 h
UACC-257 melanoma = system: UACC-257 melanoma
RPMI-8226 leukemia = system: RPMI-8226 leukemia
CAKI-1 renal = system: CAKI-1 renal
HOP-92 NSCLC = system: HOP-92 NSCLC
HOP-18 NSCLC = system: HOP-18 NSCLC
M14 melanoma = system: M14 melanoma
IGROV1 ovarian = system: IGROV1 ovarian
SNB-75 CNS = system: SNB-75 CNS
KM12 colon = system: KM12 colon
NCI-H23 lung = system: NCI-H23 lung
OVCAR-3 ovarian = system: OVCAR-3 ovarian
KM20L2 colon = system: KM20L2 colon
EKVX NSCLC = system: EKVX NSCLC
SF-539 CNS = system: SF-539 CNS
A549 NSCLC = system: A549 NSCLC
SNB-19 CNS = system: SNB-19 CNS
OVCAR-8 ovarian = system: OVCAR-8 ovarian
NCI-H226 lung = system: NCI-H226 lung
U251 CNS = system: U251 CNS
SK-OV-3 ovarian = system: SK-OV-3 ovarian
RXF 393 renal = system: RXF 393 renal
A498 renal = system: A498 renal
HCT-116 colon = system: HCT-116 colon
SK-MEL-5 melanoma = system: SK-MEL-5 melanoma
SK-MEL-28 melanoma = system: SK-MEL-28 melanoma
ACHN renal = system: ACHN renal
HL-60(TB) leukemia = system: HL-60(TB) leukemia
TK-10 renal = system: TK-10 renal
SF-268 CNS = system: SF-268 CNS
SW-620 colon = system: SW-620 colon
HCT-15 colon = system: HCT-15 colon
NCI-H522 lung = system: NCI-H522 lung
HT29 colon = system: HT29 colon
NCI-H460 lung = system: NCI-H460 lung
UO-31 renal = system: UO-31 renal
UACC-62 melanoma = system: UACC-62 melanoma
OVCAR-4 ovarian = system: OVCAR-4 ovarian
SF-295 CNS = system: SF-295 CNS
LOX IMVI melanoma = system: LOX IMVI melanoma
SN12C renal = system: SN12C renal
OVCAR-5 ovarian = system: OVCAR-5 ovarian
K-562 leukemia = system: K-562 leukemia
COLO 205 colon = system: COLO 205 colon
MOLT-4 leukemia = system: MOLT-4 leukemia
DMS 273 small cell lung = system: DMS 273 small cell lung
HCC-2998 colon = system: HCC-2998 colon
MALME-3M melanoma = system: MALME-3M melanoma
HOP-62 NSCLC = system: HOP-62 NSCLC
SNB-78 CNS = system: SNB-78 CNS
786-0 renal = system: 786-0 renal
M19-MEL melanoma = system: M19-MEL melanoma
LXFL 529 NSCLC = system: LXFL 529 NSCLC
DLD-1 colon = system: DLD-1 colon
SK-MEL-2 melanoma = system: SK-MEL-2 melanoma
CCRF-CEM leukemia = system: CCRF-CEM leukemia
SR leukemia = system: SR leukemia
RXF-631 renal = system: RXF-631 renal

## O=C([CH-]C(=O)c1ccccc1)c1ccccc1.O=C([CH-]C(=O)c1ccccc1)c1ccccc1.O=C([CH-]C(=O)c1ccccc1)c1ccccc1.[Cl-].[Hf+4]
UACC-257 melanoma
  GI50: 22.2 µM
  TGI: 69.5 µM
RPMI-8226 leukemia
  GI50: 13.5 µM
  TGI: 82.1 µM
CAKI-1 renal
  GI50: 14.2 µM
  TGI: 52.4 µM
HOP-92 NSCLC
  GI50: 10.9 µM
  TGI: 36.1 µM
HOP-18 NSCLC
  GI50: 5.66 µM
  TGI: 24.8 µM
M14 melanoma
  GI50: 13.5 µM
  TGI: 32.9 µM
IGROV1 ovarian
  GI50: 33.3 µM
  TGI: > 100 µM
SNB-75 CNS
  GI50: 9.43 µM
  TGI: > 100 µM
KM12 colon
  GI50: 21.1 µM
  TGI: > 100 µM
NCI-H23 lung
  GI50: 15.8 µM
  TGI: 83.4 µM
OVCAR-3 ovarian
  GI50: 15.2 µM
  TGI: > 100 µM
KM20L2 colon
  GI50: 34.2 µM
  TGI: > 100 µM
EKVX NSCLC
  GI50: 24.8 µM
  TGI: 77.2 µM
SF-539 CNS
  GI50: 17.2 µM
  TGI: 41.8 µM
A549 NSCLC
  GI50: 16.7 µM
  TGI: 86.2 µM
SNB-19 CNS
  GI50: 14.1 µM
  TGI: > 100 µM
OVCAR-8 ovarian
  GI50: 11.5 µM
  TGI: 77.7 µM
NCI-H226 lung
  GI50: 13 µM
  TGI: 54 µM
U251 CNS
  GI50: 19.1 µM
  TGI: > 100 µM
SK-OV-3 ovarian
  GI50: 22.7 µM
  TGI: 62.3 µM
RXF 393 renal
  GI50: 7.68 µM
  TGI: 23.2 µM
A498 renal
  GI50: 18.6 µM
  TGI: 63 µM
HCT-116 colon
  GI50: 7.33 µM
  TGI: 26.1 µM
SK-MEL-5 melanoma
  GI50: 11.1 µM
  TGI: 31.5 µM
SK-MEL-28 melanoma
  GI50: 20.3 µM
  TGI: 82.5 µM
ACHN renal
  GI50: 33.9 µM
  TGI: > 100 µM
HL-60(TB) leukemia
  GI50: 18.1 µM
  TGI: > 100 µM
TK-10 renal
  GI50: 18.7 µM
  TGI: 53.8 µM
SF-268 CNS
  GI50: 26.4 µM
  TGI: > 100 µM
SW-620 colon
  GI50: 10.8 µM
  TGI: > 100 µM
HCT-15 colon
  GI50: 12.5 µM
  TGI: > 100 µM
NCI-H522 lung
  GI50: 12.6 µM
  TGI: 62.8 µM
HT29 colon
  GI50: 33.9 µM
  TGI: > 100 µM
NCI-H460 lung
  GI50: 13.1 µM
  TGI: 67.7 µM
UO-31 renal
  GI50: 26.8 µM
  TGI: 96.9 µM
UACC-62 melanoma
  GI50: 14.6 µM
  TGI: > 100 µM
OVCAR-4 ovarian
  GI50: 14.6 µM
  TGI: > 100 µM
SF-295 CNS
  GI50: 14.9 µM
  TGI: > 100 µM
LOX IMVI melanoma
  GI50: 23.3 µM
  TGI: > 100 µM
SN12C renal
  GI50: 41.3 µM
  TGI: > 100 µM
OVCAR-5 ovarian
  GI50: 30.8 µM
  TGI: > 100 µM
K-562 leukemia
  GI50: 7.11 µM
  TGI: > 100 µM
COLO 205 colon
  GI50: 23.9 µM
  TGI: > 100 µM
MOLT-4 leukemia
  GI50: 11.1 µM
  TGI: > 100 µM

## CN(C)C(=NC#N)N(Cc1ccccc1)Cc1ccccc1
DMS 273 small cell lung
  TGI: > 100 µM
UACC-257 melanoma
  TGI: > 100 µM
HCC-2998 colon
  TGI: > 100 µM
RPMI-8226 leukemia
  TGI: > 100 µM
CAKI-1 renal
  TGI: > 100 µM
MALME-3M melanoma
  TGI: > 100 µM
HOP-92 NSCLC
  TGI: > 100 µM
HOP-18 NSCLC
  TGI: > 100 µM
M14 melanoma
  TGI: > 100 µM
IGROV1 ovarian
  TGI: > 100 µM
SNB-75 CNS
  TGI: > 100 µM
KM12 colon
  TGI: > 100 µM
NCI-H23 lung
  TGI: > 100 µM
OVCAR-3 ovarian
  TGI: > 100 µM
KM20L2 colon
  TGI: > 100 µM
EKVX NSCLC
  TGI: > 100 µM
HOP-62 NSCLC
  TGI: > 100 µM
SF-539 CNS
  TGI: > 100 µM
SNB-78 CNS
  TGI: > 100 µM
786-0 renal
  TGI: > 100 µM
A549 NSCLC
  TGI: > 100 µM
SNB-19 CNS
  TGI: > 100 µM
OVCAR-8 ovarian
  TGI: > 100 µM
NCI-H226 lung
  TGI: > 100 µM
U251 CNS
  TGI: > 100 µM
SK-OV-3 ovarian
  TGI: > 100 µM
RXF 393 renal
  TGI: > 100 µM
A498 renal
  TGI: > 100 µM
M19-MEL melanoma
  TGI: > 100 µM
LXFL 529 NSCLC
  TGI: > 100 µM
DLD-1 colon
  TGI: > 100 µM
SK-MEL-2 melanoma
  TGI: > 100 µM
HCT-116 colon
  TGI: > 100 µM
SK-MEL-5 melanoma
  TGI: > 100 µM
SK-MEL-28 melanoma
  TGI: > 100 µM
ACHN renal
  TGI: > 100 µM
HL-60(TB) leukemia
  TGI: > 100 µM
TK-10 renal
  TGI: > 100 µM
SF-268 CNS
  TGI: > 100 µM
SW-620 colon
  TGI: 33.7 µM
HCT-15 colon
  TGI: 30.1 µM
NCI-H522 lung
  TGI: 81.5 µM
HT29 colon
  TGI: > 100 µM
NCI-H460 lung
  TGI: 34 µM
UO-31 renal
  TGI: > 100 µM
UACC-62 melanoma
  TGI: > 100 µM
OVCAR-4 ovarian
  TGI: > 100 µM
SF-295 CNS
  TGI: > 100 µM
LOX IMVI melanoma
  TGI: > 100 µM
SN12C renal
  TGI: > 100 µM
OVCAR-5 ovarian
  TGI: > 100 µM
K-562 leukemia
  TGI: 50.9 µM
COLO 205 colon
  TGI: > 100 µM
CCRF-CEM leukemia
  TGI: > 100 µM

## Cc1ccc(S(=O)(=O)OCCOCCOCCOCCOCCOS(=O)(=O)c2ccc(C)cc2)cc1
DMS 273 small cell lung
  TGI: > 100 µM
UACC-257 melanoma
  TGI: 77.8 µM
HCC-2998 colon
  TGI: > 100 µM
RPMI-8226 leukemia
  TGI: 92.7 µM
CAKI-1 renal
  TGI: > 100 µM
MALME-3M melanoma
  TGI: > 100 µM
HOP-92 NSCLC
  TGI: 99.3 µM
HOP-18 NSCLC
  TGI: > 100 µM
M14 melanoma
  TGI: > 100 µM
IGROV1 ovarian
  TGI: > 100 µM
SNB-75 CNS
  TGI: > 100 µM
KM12 colon
  TGI: > 100 µM
SR leukemia
  TGI: 90.9 µM
NCI-H23 lung
  TGI: > 100 µM
OVCAR-3 ovarian
  TGI: > 100 µM
KM20L2 colon
  TGI: > 100 µM
EKVX NSCLC
  TGI: > 100 µM
HOP-62 NSCLC
  TGI: > 100 µM
SNB-78 CNS
  TGI: > 100 µM
786-0 renal
  TGI: > 100 µM
A549 NSCLC
  TGI: > 100 µM
SNB-19 CNS
  TGI: > 100 µM
OVCAR-8 ovarian
  TGI: 88 µM
NCI-H226 lung
  TGI: > 100 µM
U251 CNS
  TGI: > 100 µM
SK-OV-3 ovarian
  TGI: > 100 µM
RXF 393 renal
  TGI: > 100 µM
A498 renal
  TGI: > 100 µM
M19-MEL melanoma
  TGI: > 100 µM
LXFL 529 NSCLC
  TGI: > 100 µM
DLD-1 colon
  TGI: > 100 µM
SK-MEL-2 melanoma
  TGI: > 100 µM
HCT-116 colon
  TGI: > 100 µM
SK-MEL-5 melanoma
  TGI: 65 µM
SK-MEL-28 melanoma
  TGI: > 100 µM
ACHN renal
  TGI: > 100 µM
RXF-631 renal
  TGI: 82.2 µM
TK-10 renal
  TGI: > 100 µM
SF-268 CNS
  TGI: > 100 µM
SW-620 colon
  TGI: > 100 µM
HCT-15 colon
  TGI: > 100 µM
NCI-H522 lung
  TGI: > 100 µM
HT29 colon
  TGI: > 100 µM
NCI-H460 lung
  TGI: > 100 µM
UO-31 renal
  TGI: > 100 µM
UACC-62 melanoma
  TGI: > 100 µM
OVCAR-4 ovarian
  TGI: > 100 µM
SF-295 CNS
  TGI: > 100 µM
LOX IMVI melanoma
  TGI: > 100 µM
SN12C renal
  TGI: > 100 µM
OVCAR-5 ovarian
  TGI: > 100 µM
K-562 leukemia
  TGI: > 100 µM
COLO 205 colon
  TGI: 34.8 µM
CCRF-CEM leukemia
  TGI: 66.4 µM
MOLT-4 leukemia
  TGI: 41.4 µM
